Test results reported in patent US12396966B2, “Pharmaceutical compositions and oral dosage forms of ketamine derivatives” (XWPHARMA LTD., priority 2021, dated 2025).

Assays:
[1] = humans; cited from earlier work
[2] = Preclinical pharmacokinetic studies; format: in vivo; conditions: mice
[3] = Preclinical pharmacokinetic studies: dose proportionality and repeated dosing; format: in vivo
[4] = Preclinical pharmacokinetic studies; format: in vivo; conditions: monkeys
CYP3A4 = CYP3A4 (Homo sapiens, UniProt P08684); assay: Preclinical studies: metabolism of compound (39) to release esketamine; format: in vitro ADME
CYP2C19 = CYP2C19 (Homo sapiens, UniProt P33261); assay: as above; format: in vitro ADME
CYP2D6 = CYP2D6 (Homo sapiens, UniProt P10635); assay: as above; format: in vitro ADME
[5] = Preclinical pharmacokinetic studies; format: in vivo; conditions: dogs
[6] = Preclinical pharmacokinetic studies; format: in vivo; conditions: rats
[7] = Two-stage dissolution of tablets (0.1N HCl 1 hour, then 50 mM acetate buffer pH 4.5); format: physicochemical; conditions: FIG. 2
Method: The two-stage dissolution profiles were obtain as described in Example 5.
A two-stage dissolution apparatus was used to measure the dissolution profile of the tablets.
In the first stage, the tablets were immersed in 0.1N HCl a dissolution medium for 1 hour.
The dissolution medium was then immediately charged to a 50 mM acetate buffer at pH 4.5 immediately following 1 hour sampling via addition of 100 mM acetate buffer with appropriate pH and continued through 18 hours.
Two-stage dissolution profiles for the tablets were obtained using a USP 1 dissolution apparatus. The tablets were first added to 500 mL of a 0.1N hydrochloric acid solution and agitated at 100 RPM for 1 hour at 37° C. Samples (1 mL) were withdrawn at 0, 0.5 and 1 hours. The acid solution was then replaced with 1,000 mL of a 50 mM pH 4.5 acetate buffer solution and the tablets agitated at 100 RPM for up to 24 hours at 37° C. Samples (1 mL) were withdrawn at 1.5, 2, 3, 4, 6, 8, 12, 16, 20, and 24 hours. Solution samples were withdrawn at intervals and the concentration of Compound (39) was measured using high pressure liquid chromatography mass spectroscopy.

CYP3A4, sequence (P08684 whole entry, species assumed): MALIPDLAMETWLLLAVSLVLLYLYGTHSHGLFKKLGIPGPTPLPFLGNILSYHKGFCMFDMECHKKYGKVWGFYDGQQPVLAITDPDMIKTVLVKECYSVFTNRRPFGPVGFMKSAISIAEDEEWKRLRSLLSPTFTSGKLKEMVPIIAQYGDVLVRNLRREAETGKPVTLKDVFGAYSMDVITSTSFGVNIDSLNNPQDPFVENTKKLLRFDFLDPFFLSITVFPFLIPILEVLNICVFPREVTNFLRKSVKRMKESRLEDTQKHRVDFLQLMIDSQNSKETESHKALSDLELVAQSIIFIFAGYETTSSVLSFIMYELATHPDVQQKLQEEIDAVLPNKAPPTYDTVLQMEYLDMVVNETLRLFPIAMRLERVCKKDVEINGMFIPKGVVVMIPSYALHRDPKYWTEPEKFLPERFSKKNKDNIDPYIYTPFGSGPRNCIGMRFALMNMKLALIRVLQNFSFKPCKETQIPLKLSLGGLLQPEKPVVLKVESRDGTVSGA
CYP2D6, sequence (P10635 whole entry, species assumed): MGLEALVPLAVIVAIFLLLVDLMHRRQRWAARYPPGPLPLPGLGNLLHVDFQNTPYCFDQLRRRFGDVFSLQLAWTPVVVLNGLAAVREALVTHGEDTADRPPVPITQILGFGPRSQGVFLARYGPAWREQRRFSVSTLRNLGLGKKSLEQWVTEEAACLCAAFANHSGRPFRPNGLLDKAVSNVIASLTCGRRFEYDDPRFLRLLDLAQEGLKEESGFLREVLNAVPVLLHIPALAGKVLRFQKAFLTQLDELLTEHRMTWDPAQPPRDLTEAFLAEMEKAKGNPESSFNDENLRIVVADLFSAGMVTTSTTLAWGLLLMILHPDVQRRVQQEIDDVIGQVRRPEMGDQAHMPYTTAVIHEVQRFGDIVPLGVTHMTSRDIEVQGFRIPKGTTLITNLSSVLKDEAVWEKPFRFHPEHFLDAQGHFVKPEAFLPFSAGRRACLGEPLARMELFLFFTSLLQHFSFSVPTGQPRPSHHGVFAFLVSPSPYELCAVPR
CYP2C19, sequence (P33261 whole entry, species assumed): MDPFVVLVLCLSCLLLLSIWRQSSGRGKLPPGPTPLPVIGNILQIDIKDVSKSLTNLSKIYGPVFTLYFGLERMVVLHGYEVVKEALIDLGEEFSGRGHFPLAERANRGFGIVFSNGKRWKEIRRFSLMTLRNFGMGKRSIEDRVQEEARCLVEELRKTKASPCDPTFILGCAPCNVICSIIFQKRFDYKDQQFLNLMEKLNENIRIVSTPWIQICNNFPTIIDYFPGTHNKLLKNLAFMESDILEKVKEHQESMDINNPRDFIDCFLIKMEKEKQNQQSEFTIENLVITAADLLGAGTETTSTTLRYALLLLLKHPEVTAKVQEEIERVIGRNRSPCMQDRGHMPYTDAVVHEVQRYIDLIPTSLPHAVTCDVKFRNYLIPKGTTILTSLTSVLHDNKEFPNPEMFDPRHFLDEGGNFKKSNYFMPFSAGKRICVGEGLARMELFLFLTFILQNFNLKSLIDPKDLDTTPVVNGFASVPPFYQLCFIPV

For `CNC1(c2ccccc2Cl)CCCCC1=O` (stereo not drawn) [Ketamine, 2-(2-chlorophenyl)-2-(methylamino)cyclohexan-one], the “oral bioavailability (% F)” value [1] is given as “about 20%”.

For `CC(C)[C@@H](C(=O)OCOC(=O)N(C)[C@]1(c2ccccc2Cl)CCCCC1=O)N(C)C` [compound (39), ((((S)-1-(2-chlorophenyl)-2-oxocyclohexyl)(methyl)carbamoyl)oxy)methyl dimethyl-L-valinate], the “absorption and conversion to esketamine” value [2] was “rapid absorption and conversion to esketamine”, the “accumulation of compound (39) and its metabolites” value ([3]; following repeated dosing) was “not observed” and the “systemic exposure, expressed as AUC: dose proportionality” value ([3]; for compound (39), esketamine, and noresketamine) was “less than to greater than dose proportional”. The “absorption and conversion to esketamine” value [4] was “rapid absorption and conversion to esketamine”, the “metabolism by CYP3A4 to release esketamine” value (CYP3A4) was “metabolized” and the “metabolism by CYP2C19 to release esketamine” value (CYP2C19) was “metabolized”. The “metabolism by CYP2D6 to release esketamine” value (CYP2D6) was “metabolized”, the “absorption and conversion to esketamine” value [5] was “rapid absorption and conversion to esketamine” and the “absorption and conversion to esketamine” value [6] was “rapid absorption and conversion to esketamine”. The “effect of sodium lauryl sulfate on solubility of compound (39)” value ([7]; acid stage (0.1N HCl), tablets with and without sodium lauryl sulfate) was “reduces the solubility” and the dissolution rate ([7]; pH 4.5, tablets with and without sodium lauryl sulfate) was “approximately independent of the amount of sodium lauryl sulfate”.
